This note sets out measurements from publication PMC6934184, “Selective DNA-PKcs inhibition extends the therapeutic index of localized radiotherapy and chemotherapy” (The Journal of Clinical Investigation, 2019).

The target of this experiment is T1, TGFBR2 (Homo sapiens, UniProt P37173).
T1 construct: purchased Thermo Fisher Scientific (Life Technologies) SelectScreen
As to the kind of experiment: SelectScreen LanthaScreen. As to conditions: read-out: % displacement. The experiment is classed as binding. An outline of the steps: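 SelectScreen broad panel; activity (Z'LYTE, Adapta) plus binding formats. ATP: Km app for CSF1R Z'LYTE; 10 for CAMK1 Adapta. Readout = % per kinase.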
A general note: Time-resolved FRET reads energy transfer from a long-lived donor to a nearby acceptor.

T1 sequence (P37173 23-567): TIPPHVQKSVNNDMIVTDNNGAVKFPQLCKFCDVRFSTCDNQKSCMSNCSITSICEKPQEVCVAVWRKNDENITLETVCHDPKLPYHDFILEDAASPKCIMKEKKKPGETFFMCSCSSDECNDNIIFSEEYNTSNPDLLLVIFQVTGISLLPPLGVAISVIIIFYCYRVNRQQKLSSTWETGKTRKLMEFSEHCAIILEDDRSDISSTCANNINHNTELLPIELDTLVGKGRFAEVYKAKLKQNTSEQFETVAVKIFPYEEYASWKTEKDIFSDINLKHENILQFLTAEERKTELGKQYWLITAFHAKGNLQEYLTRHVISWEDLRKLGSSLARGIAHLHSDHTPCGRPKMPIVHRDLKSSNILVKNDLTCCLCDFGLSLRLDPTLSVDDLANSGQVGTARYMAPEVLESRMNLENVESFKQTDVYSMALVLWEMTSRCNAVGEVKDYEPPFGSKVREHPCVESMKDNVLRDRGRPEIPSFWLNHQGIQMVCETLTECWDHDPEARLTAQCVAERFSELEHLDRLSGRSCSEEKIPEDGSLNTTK

On to `CN(C(=O)CN1CCOCC1)c1ccc2sc3c(-c4cccc5c(=O)cc(N6CC7CCC(C6)O7)oc45)cccc3c2c1` [NU5455], for which the inhibition at 1 µM is -0.1%.
